These results are taken from ChEMBL document CHEMBL4145493, “Tetrahydroacridine derivatives with dichloronicotinic acid moiety as attractive, multipotent agents for Alzheimer's disease treatment” (Eur J Med Chem, 2018).

Data set [1] has as its target Amyloid-beta precursor protein (Homo sapiens) (UniProt P05067). In words: Inhibition of self-induced amyloid beta (1 to 42) (unknown origin) aggregation at 10 uM measured after 24 hrs by ThT fluorescence assay relative to control.
Data set [2] has the same target. As to the kind of experiment: Inhibition of self-induced amyloid beta (1 to 42) (unknown origin) aggregation at 25 uM measured after 24 hrs by ThT fluorescence assay relative to control.
For data set [3], the system named is BuChE (equine serum). In words: Selectivity index, ratio of IC50 for human A549 cells to IC50 for equine serum BuChE. The class given is toxicity. The settings on record: read-out: Ratio IC50.
For data set [4], the target named is Amyloid-beta precursor protein (Homo sapiens) (UniProt P05067). In words: Inhibition of self-induced amyloid beta (1 to 42) (unknown origin) aggregation at 50 uM measured after 24 hrs by ThT fluorescence assay relative to control.
The target of data set [5] is T1, Hyaluronidase (Bos taurus, UniProt Q8SQG8+Q5E985).
T1 sequence (Q8SQG8 whole entry): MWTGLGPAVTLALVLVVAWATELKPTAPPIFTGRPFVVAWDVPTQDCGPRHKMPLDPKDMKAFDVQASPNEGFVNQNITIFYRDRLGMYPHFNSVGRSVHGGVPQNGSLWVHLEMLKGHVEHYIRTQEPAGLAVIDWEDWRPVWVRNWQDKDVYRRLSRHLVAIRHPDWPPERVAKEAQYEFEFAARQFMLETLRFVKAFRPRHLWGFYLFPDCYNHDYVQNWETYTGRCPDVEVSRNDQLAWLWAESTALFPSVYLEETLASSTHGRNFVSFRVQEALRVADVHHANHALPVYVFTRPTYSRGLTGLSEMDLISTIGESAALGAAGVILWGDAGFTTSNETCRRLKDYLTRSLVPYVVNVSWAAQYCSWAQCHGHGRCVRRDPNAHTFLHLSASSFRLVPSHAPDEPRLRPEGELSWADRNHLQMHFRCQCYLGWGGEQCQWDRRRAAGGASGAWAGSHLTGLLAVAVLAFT
T1 sequence (Q5E985 whole entry): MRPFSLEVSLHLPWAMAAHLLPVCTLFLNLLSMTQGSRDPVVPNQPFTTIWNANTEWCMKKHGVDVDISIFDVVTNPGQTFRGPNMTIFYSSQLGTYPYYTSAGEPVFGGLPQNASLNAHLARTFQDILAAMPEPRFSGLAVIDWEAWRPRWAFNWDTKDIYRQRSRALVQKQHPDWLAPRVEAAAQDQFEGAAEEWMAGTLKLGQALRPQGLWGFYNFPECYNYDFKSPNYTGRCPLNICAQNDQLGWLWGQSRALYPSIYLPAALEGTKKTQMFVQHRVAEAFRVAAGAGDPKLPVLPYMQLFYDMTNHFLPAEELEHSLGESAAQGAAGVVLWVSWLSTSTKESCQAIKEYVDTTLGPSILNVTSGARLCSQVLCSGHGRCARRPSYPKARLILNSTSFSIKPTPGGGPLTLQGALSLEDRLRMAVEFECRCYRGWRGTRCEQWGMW
As to the kind of experiment: Inhibition of bovine testes hyaluronidase using hyaluronic acid as substrate preincubated for 10 mins in dark followed by incubation with substrate for 45 mins and subsequent addition of serum albumin measured after 10 mins by turbidimetric method. The class given is protein assay.

Data set [6] has as its target Amyloid-beta precursor protein (Homo sapiens) (UniProt P05067). As to the kind of experiment: Inhibition of self-induced amyloid beta (1 to 42) (unknown origin) aggregation at 5 uM measured after 24 hrs by ThT fluorescence assay relative to control.
Data set [7] concerns the target Cholinesterase (Equus caballus, UniProt P81908). As to the kind of experiment: Inhibition of equine serum BuChE using acetylthiocholine iodide as substrate after 8 mins by Ellman's method. Background: DTNB colorimetry detects thiols as they appear.
Data set [8] can be described thus: Cytotoxicity against human A549 cells assessed as cell viability at 2.3 uM after 48 hrs by MTT assay relative to control. Particulars: read-out: Activity. The data set is classed as cell-based.
In data set [9] the target is Acetylcholinesterase (Electrophorus electricus, UniProt O42275). As to the kind of experiment: Inhibition of electric eel AChE using acetylthiocholine iodide as substrate after 10 mins by Ellman's method.
Data set [10] deals with A549. As to the kind of experiment: Cytotoxicity against human A549 cells assessed as cell viability after 48 hrs by MTT assay. The data set is classed as cell-based. Particulars: A549, 48 h. A general note: Formazan colour is commonly taken as a measure of viable cells.
Data set [11] has as its system AChE (electric eel). In words: Selectivity index, ratio of IC50 for human A549 cells to IC50 for electric eel AChE. The data set is classed as toxicity. Particulars: read-out: Ratio IC50.
Data set [12] can be described thus: Cytotoxicity against human A549 cells assessed as cell viability at 0.9 uM after 48 hrs by MTT assay relative to control. The settings on record: read-out: Activity. The data set is classed as cell-based.

Sequence of Amyloid-beta precursor protein (Homo sapiens) (P05067 whole entry): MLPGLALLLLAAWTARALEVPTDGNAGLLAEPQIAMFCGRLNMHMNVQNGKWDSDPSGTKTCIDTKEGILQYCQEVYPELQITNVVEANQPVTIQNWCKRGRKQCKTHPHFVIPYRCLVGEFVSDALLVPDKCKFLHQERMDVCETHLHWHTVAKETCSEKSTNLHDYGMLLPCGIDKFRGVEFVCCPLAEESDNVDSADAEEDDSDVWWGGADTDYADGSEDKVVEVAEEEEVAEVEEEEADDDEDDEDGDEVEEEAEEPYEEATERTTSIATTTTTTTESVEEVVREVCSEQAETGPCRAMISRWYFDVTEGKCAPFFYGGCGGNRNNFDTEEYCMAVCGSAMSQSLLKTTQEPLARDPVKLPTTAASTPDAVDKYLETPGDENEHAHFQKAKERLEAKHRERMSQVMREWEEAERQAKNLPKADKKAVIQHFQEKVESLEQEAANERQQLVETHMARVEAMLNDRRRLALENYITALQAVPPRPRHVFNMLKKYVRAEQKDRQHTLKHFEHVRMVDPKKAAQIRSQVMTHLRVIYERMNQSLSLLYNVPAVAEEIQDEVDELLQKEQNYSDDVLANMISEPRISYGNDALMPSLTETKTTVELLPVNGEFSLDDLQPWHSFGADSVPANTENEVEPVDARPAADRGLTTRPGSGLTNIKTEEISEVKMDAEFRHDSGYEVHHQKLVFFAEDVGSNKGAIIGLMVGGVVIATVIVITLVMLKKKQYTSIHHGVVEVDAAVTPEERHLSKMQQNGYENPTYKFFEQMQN
Sequence of Cholinesterase (P81908 whole entry): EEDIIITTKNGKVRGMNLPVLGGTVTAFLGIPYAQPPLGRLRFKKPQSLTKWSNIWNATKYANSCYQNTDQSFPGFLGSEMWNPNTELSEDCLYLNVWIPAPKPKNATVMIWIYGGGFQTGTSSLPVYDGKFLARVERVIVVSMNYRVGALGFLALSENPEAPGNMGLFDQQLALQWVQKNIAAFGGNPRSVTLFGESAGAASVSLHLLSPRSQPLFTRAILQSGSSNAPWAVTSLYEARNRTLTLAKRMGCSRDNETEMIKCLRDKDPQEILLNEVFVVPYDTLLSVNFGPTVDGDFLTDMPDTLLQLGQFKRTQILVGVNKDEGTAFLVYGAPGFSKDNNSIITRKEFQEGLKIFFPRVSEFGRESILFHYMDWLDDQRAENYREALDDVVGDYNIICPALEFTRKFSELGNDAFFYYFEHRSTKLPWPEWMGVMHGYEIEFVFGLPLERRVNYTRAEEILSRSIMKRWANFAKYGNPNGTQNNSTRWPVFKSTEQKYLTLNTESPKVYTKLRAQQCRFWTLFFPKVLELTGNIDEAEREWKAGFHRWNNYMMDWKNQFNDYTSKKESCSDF
Sequence of Acetylcholinesterase (O42275 whole entry): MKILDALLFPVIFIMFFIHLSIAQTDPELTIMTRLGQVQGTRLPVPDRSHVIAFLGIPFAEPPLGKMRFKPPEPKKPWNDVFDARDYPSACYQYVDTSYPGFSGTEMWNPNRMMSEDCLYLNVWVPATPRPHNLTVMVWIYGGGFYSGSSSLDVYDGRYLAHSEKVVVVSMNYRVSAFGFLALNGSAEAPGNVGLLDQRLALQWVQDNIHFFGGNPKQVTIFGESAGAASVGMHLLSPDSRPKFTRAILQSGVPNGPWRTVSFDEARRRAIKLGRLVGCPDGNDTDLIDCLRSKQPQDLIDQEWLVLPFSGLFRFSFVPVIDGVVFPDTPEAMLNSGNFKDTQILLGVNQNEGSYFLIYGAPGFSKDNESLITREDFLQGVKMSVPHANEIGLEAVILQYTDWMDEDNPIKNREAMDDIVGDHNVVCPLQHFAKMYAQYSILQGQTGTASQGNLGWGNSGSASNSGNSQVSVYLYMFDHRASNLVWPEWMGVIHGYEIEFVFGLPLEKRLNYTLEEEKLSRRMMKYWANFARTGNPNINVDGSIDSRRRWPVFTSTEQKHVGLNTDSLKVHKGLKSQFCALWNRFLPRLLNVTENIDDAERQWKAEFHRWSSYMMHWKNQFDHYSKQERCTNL

Turning to `Cl.O=C(NCCCNc1c2c(nc3ccccc13)CCCC2)c1cnc(Cl)c(Cl)c1`, the inhibition in data set [1] worked out at 26.6%; in data set [2] it was 31.1%; in data set [4], 46.6%; in [6], 19.4%. Also, the figures for the selectivity ratio in data set [3] and in data set [11] were 13 and 1960, respectively. Also, the IC50 in data set [5] was determined as 465750 nM; in [7] it was 160 nM; in data set [9], 1.02 nM; in data set [10], 2000 nM. In data set [8], the viability at 48 h, 2.3 µM is 46%. For the same molecule, the viability at 48 h, 0.9 µM in [12] was found to be 82.3%.

Turning to `O=C(NCCCCCNc1c2c(nc3ccccc13)CCCC2)c1cnc(Cl)c(Cl)c1`, the results for the IC50 in data set [7] and in data set [9] were 13.5 nM and 2.9 nM, respectively.

With `O=C(NCCCCNc1c2c(nc3ccccc13)CCCC2)c1cnc(Cl)c(Cl)c1`, the IC50 in [7] was found to be 41.4 nM; in data set [9], 1.65 nM.

For the molecule `O=C(NCCNc1c2c(nc3ccccc13)CCCC2)c1cnc(Cl)c(Cl)c1`, the IC50 was 726 nM in [7] and 16.7 nM in data set [9].

`O=C(NCCCCCCCCCNc1c2c(nc3ccccc13)CCCC2)c1cnc(Cl)c(Cl)c1`: the half-inhibitory concentration (IC50) in [7] is 3.33 nM; in data set [9], 3.12 nM.

In the case of `O=C(NCCCCCCCNc1c2c(nc3ccccc13)CCCC2)c1cnc(Cl)c(Cl)c1`, the half-maximal inhibitory concentration (IC50) in data set [7] was 11.4 nM; in data set [9], 12.3 nM.

On to `O=C(NCCCCCCCCNc1c2c(nc3ccccc13)CCCC2)c1cnc(Cl)c(Cl)c1`, for which the values for the half-inhibitory concentration (IC50) in data set [7] and in [9] were 10.7 nM and 10.3 nM, respectively.

For the molecule `O=C(NCCCCCCNc1c2c(nc3ccccc13)CCCC2)c1cnc(Cl)c(Cl)c1`, the concentration for half-maximal inhibition (IC50) in data set [7] came out at 12.9 nM; in data set [9], 4.2 nM.

A word on the inhibition: it is the change of the read-out against control, counted positive when it falls. The term IC50 denotes the concentration that inhibits the measured activity by half.
